Assay results: article PMC8850191, “Mechanisms of inhibition and activation of extrasynaptic αβ GABAA receptors” (Nature, 2022)
Values joined by “and” are separate entries in the source; they are usually repeats but may differ in a detail not shown here. Equal values may be shown once. Read-outs that look alike come from different tables or passages of the source.

Legend:
α1β3γ2WT [1] = target: T1, α1β3γ2WT (Homo sapiens, UniProt P14867+P18507+P28472); experiment: GABA concentration used for single channel recording (~EC95); format: cell-based; conditions: concentration used for single channel recordings
T1 construct: expressed in transfected cells; host or cells: HEK 293 cells, transient calcium-phosphate transfection, α1:β3:γ2:GFP 1:1:3:1
Description: Single GABA-activated channel currents were recorded in outside-out patches from transfected HEK 293 cells at –70 mV holding potential. Channel currents were recorded using an Axopatch 200B and filtered at 5 kHz (4-pole Bessel filter) before digitizing at 20 kHz with a Digidata 1322A. The fixed time resolution of the system was set at 80 μs. WinEDR was used for analysing single channel data. The single-channel current was determined from compiling channel current amplitude histograms and fitting Gaussian components to define the mean current, s.d. and the total area of the component. […] Individual open and closed dwell times were measured using a 50% threshold cursor applied to the main single channel current amplitude in each patch. The subsequent detection of open and closed events formed the basis of an idealized single channel record used for compiling the dwell time distributions. Frequency distributions were constructed from the measured individual open and closed times and analysed by fitting a mixture of exponentials, defined by: y(t)=∑i=1nAi/τi×e^(−t/τi) where Ai is the area of the ith component to the distribution and τi represents the corresponding exponential time constant. […] An F-test determined the optimal number of exponential components that were required to fit the individual dwell time distributions. […]

human GABAA α1β3 (WT) [2] = target: T2, human GABAA α1β3 (WT) (Homo sapiens, UniProt P14867+P28472); experiment: Whole-cell patch clamp, GABA concentration response, HEK 293 cells; format: cell-based; parameters: expressed in transfected cells; host or cells: HEK 293 cells, transient calcium-phosphate transfection, α1:β3:GFP 1:1:1
T2 sequence (P14867 28-456): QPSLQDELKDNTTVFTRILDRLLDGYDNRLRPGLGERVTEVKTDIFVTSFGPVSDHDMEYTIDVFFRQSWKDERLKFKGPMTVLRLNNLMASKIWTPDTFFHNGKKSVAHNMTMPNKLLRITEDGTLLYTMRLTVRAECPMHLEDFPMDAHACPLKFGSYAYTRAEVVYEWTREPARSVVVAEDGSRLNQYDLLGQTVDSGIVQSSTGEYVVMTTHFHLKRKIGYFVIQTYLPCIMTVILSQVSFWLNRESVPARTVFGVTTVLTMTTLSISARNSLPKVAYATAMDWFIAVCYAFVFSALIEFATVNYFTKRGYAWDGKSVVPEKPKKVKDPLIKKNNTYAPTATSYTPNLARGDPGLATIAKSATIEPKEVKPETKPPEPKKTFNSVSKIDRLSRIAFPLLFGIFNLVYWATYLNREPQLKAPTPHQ
T2 sequence (P28472 26-473): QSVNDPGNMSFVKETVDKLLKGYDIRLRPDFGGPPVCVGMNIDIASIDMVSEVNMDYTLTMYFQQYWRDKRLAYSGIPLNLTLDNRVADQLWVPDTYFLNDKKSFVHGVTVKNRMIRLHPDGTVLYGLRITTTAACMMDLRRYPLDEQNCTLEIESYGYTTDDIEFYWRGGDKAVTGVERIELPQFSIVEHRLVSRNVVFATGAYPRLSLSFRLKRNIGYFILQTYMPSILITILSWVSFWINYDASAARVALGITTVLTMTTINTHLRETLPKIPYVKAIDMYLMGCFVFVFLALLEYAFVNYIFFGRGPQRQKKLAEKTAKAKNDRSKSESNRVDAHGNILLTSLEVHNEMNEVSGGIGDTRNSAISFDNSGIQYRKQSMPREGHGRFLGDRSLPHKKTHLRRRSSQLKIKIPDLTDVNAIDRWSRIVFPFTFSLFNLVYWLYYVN
Description: (§1) Whole-cell responses were recorded in patch clamp experiments from HEK 293 cells transiently transfected with human GABAA α1β3 (WT), α1GLIVIβ3BRIL (α1β3cryo-EM; see ‘Constructs’) or α1β3γ2 (WT). HEK 293 cells were grown in DMEM supplemented with 10% v/v fetal bovine serum, 100 U ml^−1 penicillin-G and 100 µg ml^−1 streptomycin (37 °C; 95% air/5% CO2), and transfected using a calcium-phosphate precipitation method with α1:β3:GFP or α1:β3:γ2:GFP cDNAs in a ratio of 1:1:1 or 1:1:3:1, respectively, 12–24 h before experimentation. Recordings were performed with cells continuously perfused with Krebs solution composed of (mM): 140 NaCl, 4.7 KCl, 1.2 MgCl2, 2.52 CaCl2, 11 Glucose and 5 HEPES (pH 7.4; ~300 mOsm). Patch pipettes (TW150F-4; WPI; 3–4 MΩ) were filled with an internal solution containing (mM): 140 KCl, 1 MgCl2, 11 EGTA, 10 HEPES,1 CaCl2, 2 K-ATP (pH 7.2; ~305 mOsm). […] Cells were voltage-clamped at −40 mV with an Axopatch 200B amplifier (Molecular Devices), currents were digitized at 50 kHz via a Digidata 1322A (Molecular Devices), filtered at 5 kHz (−36 dB), and acquired using Clampex 10.2 (Molecular Devices). Series resistance was compensated at 60–70% (lag time 10 μs).
(§2) Peak current responses and desensitization rates were obtained using Clampfit 10.2 (Molecular Devices).

α1β3γ2WT [3] = target: T1, α1β3γ2WT; experiment: Probability of activation (PA), whole-cell, saturating GABA versus GABA + 1 mM pentobarbitone; format: cell-based; conditions: n = 6
Description: as §1

[4] = target: α1β3 cryo-EM construct (α1β3CryoEM) (Homo sapiens, UniProt P14867+P28472, DEL344-414/G341Q/R340S/S415R/S417A/V416A/Y342P); conditions: for IC50: mean pIC50 converted
Description: The α1 intracellular M3–M4 loop amino acids 313–391 (RGYA…NSVS) were substituted by the SQPARAA sequence[46]. […] The mature engineered α1 construct with a 1D4 purification tag derived from bovine rhodopsin ([sequence]) that is recognized by the Rho-1D4 monoclonal antibody (University of British Columbia)[47],[48] was cloned into the pHLsec vector after the vector secretion signal[49], ending [sequence]. […] The engineered β3 construct was cloned into pHLsec after the vector secretion sequence without any tags.
as §1
(§3) For free Zn^2+ concentration experiments, the Zn^2+ chelator tricine was used to precisely control Zn^2+ concentration and eliminate background Zn^2+ contamination. Krebs solution was supplemented with 10 mM tricine and pH corrected to 7.4.
as §2

αβδ receptors = conditions: one β-subunit His replaced by Ser (δ-subunit), relative to αβ; cited from earlier work
human GABAA α1β3 (WT) [5] = target: T2, human GABAA α1β3 (WT); experiment: Whole-cell patch clamp, Zn2+ inhibition of GABA currents, HEK 293 cells; format: cell-based; parameters: expressed in transfected cells; host or cells: HEK 293 cells, transient calcium-phosphate transfection, α1:β3:GFP 1:1:1
Description: as §1, §3, §2

αβγ receptors = conditions: one β-subunit His replaced by Ile (γ-subunit), relative to αβ; cited from earlier work
α1β3 = tested on: α1β3; parameters: method as in earlier work; conditions: muscimol versus muscimol + propofol; ref 2020 Akk G Steinbach JH, PMID:32873746; cited from earlier work
α2-GABAAR subunit = conditions: Lys in α2 at the position of α1 Ser69; cited from earlier work
GABA-A receptors = conditions: author rebuttal, peer review file; reference not given; cited from earlier work
[6] = 66 nM free Zn2+ (tricine-controlled), α1β3 cryo-EM construct, mean ± s.e.m., n = 7
[7] = 66 nM free Zn2+ (tricine-controlled), wild-type, mean ± s.e.m., n = 7

α1β3 cryo-EM construct (α1β3CryoEM), sequence (P14867 with tags, fused parts or gaps R340S/G341Q/Y342P/DEL344-414/S415R/V416A/S417A): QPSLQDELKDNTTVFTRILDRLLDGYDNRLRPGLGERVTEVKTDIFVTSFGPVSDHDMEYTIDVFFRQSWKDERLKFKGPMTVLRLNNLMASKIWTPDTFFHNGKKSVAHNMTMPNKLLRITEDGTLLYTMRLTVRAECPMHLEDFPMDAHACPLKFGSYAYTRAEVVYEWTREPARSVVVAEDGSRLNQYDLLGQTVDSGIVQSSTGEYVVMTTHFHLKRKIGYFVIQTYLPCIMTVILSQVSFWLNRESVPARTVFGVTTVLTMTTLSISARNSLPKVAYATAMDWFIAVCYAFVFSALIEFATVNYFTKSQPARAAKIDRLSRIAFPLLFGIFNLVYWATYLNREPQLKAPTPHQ
α1β3 cryo-EM construct (α1β3CryoEM), sequence (P28472 with tags, fused parts or gaps, stated change not applied): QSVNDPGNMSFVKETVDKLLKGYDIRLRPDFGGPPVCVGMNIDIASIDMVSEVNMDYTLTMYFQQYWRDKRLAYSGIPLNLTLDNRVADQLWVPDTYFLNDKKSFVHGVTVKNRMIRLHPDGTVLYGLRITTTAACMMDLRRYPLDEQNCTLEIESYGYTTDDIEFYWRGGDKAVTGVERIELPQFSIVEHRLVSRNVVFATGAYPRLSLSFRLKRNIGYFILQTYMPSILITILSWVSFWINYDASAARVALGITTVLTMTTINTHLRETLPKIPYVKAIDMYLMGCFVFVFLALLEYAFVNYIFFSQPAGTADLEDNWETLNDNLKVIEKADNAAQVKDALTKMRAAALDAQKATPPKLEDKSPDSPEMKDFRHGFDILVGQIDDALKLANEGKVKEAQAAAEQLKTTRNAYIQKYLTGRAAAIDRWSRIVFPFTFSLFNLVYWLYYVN
T1 sequence (P18507 40-475, one chain of several): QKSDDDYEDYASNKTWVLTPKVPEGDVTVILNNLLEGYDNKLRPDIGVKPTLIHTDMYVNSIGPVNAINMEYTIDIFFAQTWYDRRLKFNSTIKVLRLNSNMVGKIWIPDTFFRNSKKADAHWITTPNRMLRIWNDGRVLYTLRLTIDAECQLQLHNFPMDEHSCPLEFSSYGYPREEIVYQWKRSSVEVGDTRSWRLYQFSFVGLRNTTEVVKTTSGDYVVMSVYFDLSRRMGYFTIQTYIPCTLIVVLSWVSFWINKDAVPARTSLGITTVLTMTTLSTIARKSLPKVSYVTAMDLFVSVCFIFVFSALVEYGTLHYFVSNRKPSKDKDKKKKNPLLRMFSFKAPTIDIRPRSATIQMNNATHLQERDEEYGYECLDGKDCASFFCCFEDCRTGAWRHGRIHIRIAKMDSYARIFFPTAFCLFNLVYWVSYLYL

## NCCCC(=O)O [GABA, γ-aminobutyric acid]
α1β3γ2WT [1]
  GABA ~EC95: ~100000 nM
Human GABAA α1β3 (WT) [2]; submaximal (20%) response, used for wild-type and cryo-EM construct
  GABA EC20: 1000 nM
Human GABAA α1β3 (WT) [2]; α1β3WT, concentration used for single channel recordings
  GABA ~EC95: ~30000 nM
α1β3γ2WT [3]
  probability of activation (PA): > 0.9 and 0.94 ± 0.03

## [Zn+2] [Zn^2+]
[4]; [6]
  inhibition of EC20 (1 μM) GABA response: 32 ± 2%
  inhibition of maximal (1 mM) GABA response: 32 ± 4%
[4]; 20 μM Zn2+, Extended Data Fig. 5a (shows WT and cryo-EM construct)
  inhibition: approximately 90%
[4]; read-out: IC50 Zn2+ inhibition, α1β3CryoEM, absence of tricine
  IC50: 220 nM
[4]; read-out: IC50 free Zn2+ inhibition, α1β3CryoEM, 10 mM tricine
  IC50: 230 nM
[4]; α1β3CryoEM, 10 mM tricine, n = 7
  pIC50 free Zn2+ inhibition: 6.64 ± 0.2
[4]; α1β3CryoEM, absence of tricine, n = 6
  pIC50 Zn2+ inhibition: 6.66 ± 0.11
αβδ receptors
  reduction of Zn2+ sensitivity: 50 fold
Human GABAA α1β3 (WT) [5]; [7]
  inhibition of EC20 (1 μM) GABA response: 38 ± 2%
  inhibition of maximal (1 mM) GABA response: 36 ± 6%
Human GABAA α1β3 (WT) [5]; α1β3WT, 10 mM tricine, mean pIC50 converted, read-out: IC50 free Zn2+ inhibition
  IC50: 149 nM
Human GABAA α1β3 (WT) [5]; α1β3WT, 10 mM tricine, n = 8
  pIC50 free Zn2+ inhibition: 6.83 ± 0.1
αβγ receptors
  reduction of Zn2+ sensitivity: 200 fold

## NCc1cc(=O)[nH]o1 [muscimol]
α1β3
  probability of activation (PA): ~ 0.6

B1: α-Cobratoxin (protein)
chain: IRCFITPDITSKDCPNGHVCYTKTWCDAFCSIRGKRVDLGCAATCPTVKTGVDIQCCSTDNCNPFPTRKRP
α2-GABAAR subunit
  reduction of sensitivity to α-CBTx: fivefold
GABA-A receptors
  sensitivity of GABA-A receptors: sub-micromolar
